Assay results taken from EPA's ToxRefDB 2.

How the values were obtained:
rat [1] = details: Subchronic oral toxicity in rodents, fischer, Gavage/Intubation, dose end: 13 week, group: systemic
rat [2] = details: Prenatal developmental toxicity study, sprague dawley, Oral, Gavage/Intubation, dose end: 15 GD
mouse [3] = details: Subchronic oral toxicity in rodents, b6c3f1, Gavage/Intubation, dose end: 13 week, group: systemic, systemic / in life observation / clinical signs / lethargy + systemic / organ weight / liver / absolute + systemic / organ weight / liver / …
rat [4] = details: Multigenerational reproductive toxicity study, sprague dawley, Oral, Gavage/Intubation, dose end: 2 generation, group: parental
mouse [5] = details: Carcinogenicity, b6c3f1, Oral, Gavage/Intubation, dose end: 2 year, group: systemic
rabbit = details: Prenatal developmental toxicity study, new zealand white, Oral, Gavage/Intubation, dose end: 18 GD
rat [6] = details: Carcinogenicity, fischer, Oral, Gavage/Intubation, dose end: 2 year, group: systemic
rat [7] = details: Fertility (Segment I); sprague dawley; Oral; Gavage/Intubation; dose end: 4 week; group: parental; systemic / organ weight / epididymis / relative to body weight + systemic / pathology microscopic / epididymis / [other] + systemic / …
rat [8] = details: Multigenerational reproductive toxicity study, other, Oral, Feed, dose end: 3 generation, group: parental
[9] = systemic / organ weight / liver / absolute + systemic / organ weight / liver / relative to body weight
[10] = group: developmental, systemic / in life observation / body weight / fetal weight
[11] = group: maternal, systemic / in life observation / clinical signs / urine, discoloration
[12] = group: maternal, systemic / in life observation / clinical signs / urine, discoloration + systemic / in life observation / body weight / body weight + …
[13] = systemic / in life observation / clinical signs / tremors + systemic / in life observation / body weight / body weight gain
[14] = systemic / in life observation / body weight / body weight + systemic / pathology microscopic / thyroid gland / hyperplasia + systemic / …
[15] = systemic / pathology microscopic / thyroid gland / hyperplasia + systemic / pathology microscopic / liver / cytomegaly + systemic / …
[16] = group: developmental, developmental / developmental malformation / bone / bent + developmental / developmental malformation / eye / microphthalmia
[17] = group: maternal, systemic / in life observation / body weight / body weight + systemic / in life observation / body weight / body weight gain + systemic / in…
[18] = systemic / in life observation / body weight / body weight + systemic / organ weight / kidney / relative to body weight + systemic / …
[19] = systemic / in life observation / body weight / body weight + systemic / pathology microscopic / blood / leukemia mononuclear
[20] = systemic / in life observation / body weight / body weight gain
[21] = systemic / in life observation / mortality / mortality + systemic / pathology microscopic / liver / hypertrophy + systemic / pathology …

Oc1ccc(O)cc1 [Hydroquinone]
LOAEL (rat [1]; systemic / in life observation / clinical signs / lethargy + systemic / pathology microscopic / kidney / degeneration + systemic / pathology…): 200 mg/kg/day | LEL (rat [1]; [9]): 25 mg/kg/day | NEL (rat [1]; [9]): < 25 mg/kg/day | NOAEL (rat [1]; systemic / organ weight / liver / absolute + systemic / organ weight / liver / relative to body weight + systemic / in life observation / …): 100 mg/kg/day | LEL (rat [2]; [10]): 300 mg/kg/day | LOAEL (rat [2]; [10]): > 300 mg/kg/day | NEL (rat [2]; [10]): 100 mg/kg/day | NOAEL (rat [2]; [10]): ≥ 300 mg/kg/day | LEL (rat [2]; [11]): 30 mg/kg/day | NEL (rat [2]; [11]): < 30 mg/kg/day | LOAEL (rat [2]; [12]): > 300 mg/kg/day | NOAEL (rat [2]; [12]): ≥ 300 mg/kg/day | LEL (mouse [3]): 25 mg/kg/day | LOAEL (mouse [3]): > 400 mg/kg/day | NEL (mouse [3]): < 25 mg/kg/day | NOAEL (mouse [3]): ≥ 400 mg/kg/day | NEL (rat [4]; systemic / in life observation / clinical signs / tremors): 50 mg/kg/day | LEL (rat [4]; [13]): 150 mg/kg/day | LOAEL (rat [4]; [13]): > 150 mg/kg/day | NOAEL (rat [4]; [13]): ≥ 150 mg/kg/day | LOAEL (mouse [5]; [14]): 100 mg/kg/day | NOAEL (mouse [5]; [14]): 50 mg/kg/day | LEL (mouse [5]; [15]): 50 mg/kg/day | NEL (mouse [5]; [15]): < 50 mg/kg/day | LEL (rabbit; [16]): 150 mg/kg/day | LOAEL (rabbit; [16]): > 150 mg/kg/day | NEL (rabbit; [16]): 75 mg/kg/day | NOAEL (rabbit; [16]): ≥ 150 mg/kg/day | LOAEL (rabbit; [17]): > 150 mg/kg/day | NEL (rabbit; [17]): 25 mg/kg/day | NOAEL (rabbit; [17]): ≥ 150 mg/kg/day | LEL (rabbit; group: maternal, systemic / in life observation / food consumption / food consumption): 75 mg/kg/day | LOAEL (rat [6]; [18]): 50 mg/kg/day | NOAEL (rat [6]; [18]): 25 mg/kg/day | LEL (rat [6]; [19]): 25 mg/kg/day | NEL (rat [6]; [19]): < 25 mg/kg/day

COS(C)(=O)=O [Methyl methanesulfonate]
LEL (rat [7]): 20 mg/kg/day | LOAEL (rat [7]): > 20 mg/kg/day | NEL (rat [7]): < 20 mg/kg/day | NOAEL (rat [7]): ≥ 20 mg/kg/day

ClC1C(Cl)C(Cl)C(Cl)C(Cl)C1Cl (stereo not drawn) [beta-Hexachlorocyclohexane]
LEL (rat [8]; [20]): 6.25 mg/kg/day | NEL (rat [8]; [20]): < 6.25 mg/kg/day | LOAEL (rat [8]; [21]): > 12.5 mg/kg/day | NOAEL (rat [8]; [21]): ≥ 12.5 mg/kg/day
